Data taken from US20240123022A1, “A STABLE ANTI-ANGIOGENIC AND ANTI-INFLAMMATORY PHARMACEUTICAL FORMULATION AND PHARMACEUTICAL COMBINATION FOR TREATMENT AND PREVENTION OF PSORIASIS” (priority 2021, published 2024).

Assays:
[1] = test system: TPA induced ear inflammation model in C57BL/6 mice; format: in vivo
Source text: The experimental procedure and doses and route of administration are same as IMQ model.

[2] = test system: EA.hy926 cells; assay: Induction of DNA fragmentation in human endothelial cell line; format: cell-based
Protocol: EA.hy926 cells, a well reported in vitro model to study the anti-angiogenic potential used for assessing apoptotic effect of IS217 through induction of DNA fragmentation. Cell conditions were maintained using DMEM, about 10% FBS, CO2 incubator and serum starved using 1% FBS. The starved cells were treated with IS217 in the concentrations of 100 μg/ml, 500 μg/ml, 1000 μg/ml, 2000 μg/ml, 5000 μg/ml and incubated for about 48 hours. Anthralin in concentrations of 0.1 μM and 0.5 μM was used as positive control.
The fragmented DNA after lysis was precipitated using PEG/NaCl solution and incubated with 0.2 μg/ml of Hoechst 33258 dye, fluorescence was read at 360 ex/460 em using Biotek synergy HT multimode reader.

[3] = Stability of IS217 API, accelerated condition 5 ± 3° C.; format: physicochemical
Protocol: (§1) The purpose of stability testing is to provide evidence on how the quality of a drug substance or drug product varies with time under the influence of a variety of environmental factors such as temperature, humidity, etc. and to establish a re-test period for the drug substance or a shelf life for the drug product and recommended storage conditions. The study was conducted according to the WHO and Schedule-Y guidelines.
(§2) The drug substance is a lyophilized white fluffy powder, and it was filled at sterile condition in glass injection vial which has airlock-rubber capping. This container closure system is the same as or simulates the packaging proposed for storage and distribution.
(§3) This study has included testing of those attributes of the drug substance that are susceptible to change during storage and are likely to influence quality, safety and/or efficacy. The testing was covered, as appropriate, the physical and chemical attributes.
(§4) The following test attributes have been selected according to above said guidelines. • Appearance; odour; colour; colour of solution (when the drug substance is soluble in solvent); clarity of solution; degradation and assessment of container closure system
(§5) The studies were conducted under appropriate storage conditions (with appropriate tolerances) that test drug substance thermal stability and its sensitivity to moisture. The drug substance is intended to store for 24 months. Accordingly, long term stability studies were done for 24 months. The details of the storage conditions have been furnished hereunder.
Name of the product: IS217; Batch size: 200 m·mol; Storage conditions: 5±3° C.

[4] = Stability of IS217 API, long-term condition −20 ± 5° C.; format: physicochemical; conditions: for Appearance, change / Assessment of container closure system, change / Clarity of solution, change / Color of Solution, change / Color, change / Odor, change: long-term −20 ± 5° C.
Protocol: as §1, §2, §3, §4
Testing frequency for long-term studies have been designed as per schedule Y. […]
as §5
23.4: Long term stability study results Name of the Product: IS217; Batch size: 200 m·mol; Storage Conditions: −20±5° C.

H-FAKKFAKKFK-OH [IS217, H-Phe-Ala-Lys-Lys-Phe-Ala-Lys-Lys-Phe-Lys-OH]
reduction in IL-23 levels in ear tissue homogenate ([1]; 0.60 mg/kg): 42.12% | maximum ear thickness inhibition ([1]; 1.2 mg/kg): 80.36% | MPO levels ([1]; 1.2 mg/kg SC, conclusion of in vivo studies, model not stated): significant reduction | absolute ear thickness ([1]; 1.2 mg/kg-4.8 mg/kg): significant reduction | ear thickness (absolute, histopathology, ear punch biopsy) ([1]; IS217 (all doses) < MTX, p < 0.001): Decreased ear | Ear homogenate ELISA TNF-α, IL-23, IL-6, MPO ([1]; p < 0.01): MPO reduction | induction of DNA fragmentation ([2]; EA.hy926, 1000 μg/ml, 48 h): 24.53% | percentage of induction of DNA fragmentation ([2]; EA.hy926, 2000 μg/ml and 5000 μg/ml): significant decrease | API calculated on the anhydrous basis (OAB) ([3]; 5 ± 3° C., 1 M): 99.36% | Related substances (By HPLC), Any Max. Impurity ([3]; 5 ± 3° C., 1 M): 0.52% | Related substances (By HPLC), Total Impurity ([3]; 5 ± 3° C., 1 M): 0.63% | Solubility (Soluble in water) ([3]; 5 ± 3° C., 1 M): Complies | Water Content (By Karl Fischer-Titrator) ([3]; 5 ± 3° C., 1 M): 4.61% w/w | Appearance, change ([3]; 5 ± 3° C., 1st month): No change | Assessment of container closure system, change ([3]; 5 ± 3° C., 1st month): No change | Clarity of solution, change ([3]; 5 ± 3° C., 1st month): No change | Color of Solution, change ([3]; 5 ± 3° C., 1st month): No change | Color, change ([3]; 5 ± 3° C., 1st month): No change | Odor, change ([3]; 5 ± 3° C., 1st month): No change | API calculated on the anhydrous basis (OAB) ([3]; 5 ± 3° C., 2 M): 99.25% | Related substances (By HPLC), Any Max. Impurity ([3]; 5 ± 3° C., 2 M): 0.53% | Related substances (By HPLC), Total Impurity ([3]; 5 ± 3° C., 2 M): 0.76% | Solubility (Soluble in water) ([3]; 5 ± 3° C., 2 M): Complies | Water Content (By Karl Fischer-Titrator) ([3]; 5 ± 3° C., 2 M): 4.55% w/w | Appearance, change ([3]; 5 ± 3° C., 2nd month): No change | Assessment of container closure system, change ([3]; 5 ± 3° C., 2nd month): No change | Clarity of solution, change ([3]; 5 ± 3° C., 2nd month): No change | Color of Solution, change ([3]; 5 ± 3° C., 2nd month): No change | Color, change ([3]; 5 ± 3° C., 2nd month): No change | Odor, change ([3]; 5 ± 3° C., 2nd month): No change | API calculated on the anhydrous basis (OAB) ([3]; 5 ± 3° C., 3 M): 99.06% | Related substances (By HPLC), Any Max. Impurity ([3]; 5 ± 3° C., 3 M): 0.59% | Related substances (By HPLC), Total Impurity ([3]; 5 ± 3° C., 3 M): 0.94% | Solubility (Soluble in water) ([3]; 5 ± 3° C., 3 M): Complies | Water Content (By Karl Fischer-Titrator) ([3]; 5 ± 3° C., 3 M): 4.60% w/w | Appearance, change ([3]; 5 ± 3° C., 3rd month): No change | Assessment of container closure system, change ([3]; 5 ± 3° C., 3rd month): No change | Clarity of solution, change ([3]; 5 ± 3° C., 3rd month): No change | Color of Solution, change ([3]; 5 ± 3° C., 3rd month): No change | Color, change ([3]; 5 ± 3° C., 3rd month): No change | Odor, change ([3]; 5 ± 3° C., 3rd month): No change | API calculated on the anhydrous basis (OAB) ([3]; 5 ± 3° C., 6 M): 99.22% | Related substances (By HPLC), Any Max. Impurity ([3]; 5 ± 3° C., 6 M): 0.43% | Related substances (By HPLC), Total Impurity ([3]; 5 ± 3° C., 6 M): 0.78% | Solubility (Soluble in water) ([3]; 5 ± 3° C., 6 M): Complies | Water Content (By Karl Fischer-Titrator) ([3]; 5 ± 3° C., 6 M): 4.62% w/w | Appearance, change ([3]; 5 ± 3° C., 6th month): No change | Assessment of container closure system, change ([3]; 5 ± 3° C., 6th month): No change | Clarity of solution, change ([3]; 5 ± 3° C., 6th month): No change | Color of Solution, change ([3]; 5 ± 3° C., 6th month): No change | Color, change ([3]; 5 ± 3° C., 6th month): No change | Odor, change ([3]; 5 ± 3° C., 6th month): No change | API calculated on the anhydrous basis (OAB) ([3]; 5 ± 3° C., Initial): 99.28% | Related substances (By HPLC), Any Max. Impurity ([3]; 5 ± 3° C., Initial): 0.60% | Related substances (By HPLC), Total Impurity ([3]; 5 ± 3° C., Initial): 0.72% | Remark ([3]; 5 ± 3° C., Initial): Complies | Solubility (Soluble in water) ([3]; 5 ± 3° C., Initial): Complies | Water Content (By Karl Fischer-Titrator) ([3]; 5 ± 3° C., Initial): 4.66% w/w | stability of IS217 API ([3]; 6 months at accelerated condition 5 ± 3° C.): stable | stability of drug substance ([3]; refrigerator (5 ± 3° C.) conditions for 24 months, concluded from Tables 13 to 16): stable | stability of IS217 API ([4]; 6 months at long term stability condition −20 ± 5° C.): stable | Appearance, change ([4]; 1st month): No change | Assessment of container closure system, change ([4]; 1st month): No change | Clarity of solution, change ([4]; 1st month): No change | Color of Solution, change ([4]; 1st month): No change | Color, change ([4]; 1st month): No change | Odor, change ([4]; 1st month): No change | Appearance, change ([4]; 2nd month): No change | Assessment of container closure system, change ([4]; 2nd month): No change | Clarity of solution, change ([4]; 2nd month): No change | Color of Solution, change ([4]; 2nd month): No change | Color, change ([4]; 2nd month): No change | Odor, change ([4]; 2nd month): No change | Appearance, change ([4]; 3rd month): No change | Assessment of container closure system, change ([4]; 3rd month): No change | Clarity of solution, change ([4]; 3rd month): No change | Color of Solution, change ([4]; 3rd month): No change | Color, change ([4]; 3rd month): No change | Odor, change ([4]; 3rd month): No change | Appearance, change ([4]; 6th month): No change | Assessment of container closure system, change ([4]; 6th month): No change | Clarity of solution, change ([4]; 6th month): No change | Color of Solution, change ([4]; 6th month): No change | Color, change ([4]; 6th month): No change | Odor, change ([4]; 6th month): No change | API calculated on the anhydrous basis (OAB) ([4]; −20 ± 5° C., 1 M): 98.98% | Related substances (By HPLC), Any Max. Impurity ([4]; −20 ± 5° C., 1 M): 0.64% | Related substances (By HPLC), Total Impurity ([4]; −20 ± 5° C., 1 M): 0.85% | Solubility (Soluble in water) ([4]; −20 ± 5° C., 1 M): Complies | Water Content (By Karl Fischer-Titrator) ([4]; −20 ± 5° C., 1 M): 4.89% w/w | API calculated on the anhydrous basis (OAB) ([4]; −20 ± 5° C., 2 M): 99.14% | Related substances (By HPLC), Any Max. Impurity ([4]; −20 ± 5° C., 2 M): 0.64% | Related substances (By HPLC), Total Impurity ([4]; −20 ± 5° C., 2 M): 0.85% | Solubility (Soluble in water) ([4]; −20 ± 5° C., 2 M): Complies | Water Content (By Karl Fischer-Titrator) ([4]; −20 ± 5° C., 2 M): 4.83% w/w | API calculated on the anhydrous basis (OAB) ([4]; −20 ± 5° C., 3 M): 99.15% | Related substances (By HPLC), Any Max. Impurity ([4]; −20 ± 5° C., 3 M): 0.72% | Related substances (By HPLC), Total Impurity ([4]; −20 ± 5° C., 3 M): 0.85% | Solubility (Soluble in water) ([4]; −20 ± 5° C., 3 M): Complies | Water Content (By Karl Fischer-Titrator) ([4]; −20 ± 5° C., 3 M): 4.52% w/w | API calculated on the anhydrous basis (OAB) ([4]; −20 ± 5° C., 6 M): 99.40% | Related substances (By HPLC), Any Max. Impurity ([4]; −20 ± 5° C., 6 M): 0.35% | Related substances (By HPLC), Total Impurity ([4]; −20 ± 5° C., 6 M): 0.61% | Solubility (Soluble in water) ([4]; −20 ± 5° C., 6 M): Complies | Water Content (By Karl Fischer-Titrator) ([4]; −20 ± 5° C., 6 M): 4.99% w/w | API calculated on the anhydrous basis (OAB) ([4]; −20 ± 5° C., Initial): 99.28% | Related substances (By HPLC), Any Max. Impurity ([4]; −20 ± 5° C., Initial): 0.60% | Related substances (By HPLC), Total Impurity ([4]; −20 ± 5° C., Initial): 0.72% | Remark ([4]; −20 ± 5° C., Initial): Complies | Solubility (Soluble in water) ([4]; −20 ± 5° C., Initial): Complies | Water Content (By Karl Fischer-Titrator) ([4]; −20 ± 5° C., Initial): 4.66% w/w
